Test system: adipocyte fatty acid-binding protein aP2
Assay: aP2 protein expression in LPS induced THP-1 monocyte-macrophage cells (immuno-western blot)
Format: cell-based, human
Conditions: THP-1 cells pre-treated 2 h, then LPS; extracts 5 or 10 μg/ml, 5-Loxin 5 μg/ml, montelukast 1 μM, NDGA 10 μM
Method: In this experiment, THP-1 human monocyte-macrophage cells were pre-treated with 5 or 10 μg/ml of each ingredient for 2 h and thereafter printed with LPS to induce the inflammatory response. The cellular proteins were extracted by cell lysis buffer and subjected to Immuno-Western blot to detect the modulation of expression of aP2 protein.
The cellular proteins were extracted by cell lysis buffer and subjected to immuno-western blot to detect the modulation of expression of aP2 protein.
Similar experiment was also conducted on Aegle marmelos, Zingiber officinale and G. mangostana extracts.

With `CC(Cc1ccc(O)c(O)c1)C(C)Cc1ccc(O)c(O)c1` (stereo not shown) [NDGA, Nordihydroguaiaretic Acid] the “inhibition of LPS induced aP2 protein expression” value was “significantly reduced”.
